# Active and inactive are the calls of the source. How the calls were made is not given here.
# Tested on: rodent carcinogenicity bioassays, tumor incidence
# Test: CCRIS carcinogenicity studies
# Method in brief: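 NCI-built, expert-reviewed records of carcinogenicity and related test outcomes (mutagenicity, tumor promotion/inhibition) compiled from published and report sources, historical span 1985-2011, not updated.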
structure (smiles),measurement,setting,value
CCN(CC)C(=O)c1cccc(C)c1,carcinogen call,"Species: DOG, Strain/Sex: BEAGLE/FEMALE, Route: ORAL, Dose: 0, 30, 100, 400 MG/KG/D IN DIET FOR 52 WK (STUDY DURATION: 52 WK), Dose: 0, 30, 100, 400 MG/KG/D IN DIET FOR 52 WK (STUDY DURATION: 52 WK)",inactive; negative
same,carcinogen call,"Species: DOG, Strain/Sex: BEAGLE/MALE, Route: ORAL, Dose: 0, 30, 100, 400 MG/KG/D IN DIET FOR 52 WK (STUDY DURATION: 52 WK), Dose: 0, 30, 100, 400 MG/KG/D IN DIET FOR 52 WK (STUDY DURATION: 52 WK)",inactive; negative
same,carcinogen call,"Species: MOUSE, Strain/Sex: CD-1/MALE, Route: ORAL, Dose: 0, 250, 500, 1000 MG/KG/D IN DIET FOR 78 WK (STUDY DURATION: 78 WK), Dose: 0, 250, 500, 1000 MG/KG/D IN DIET FOR 78 WK (STUDY DURATION: 78 WK)",inactive; negative
same,carcinogen call,"Species: Mouse, Strain/Sex: CD-1/Female (60/Group), Route: Oral, Dose: 0, 250, 500, 1000 mg/kg in diet for 78 wk, Dose: 0, 250, 500, 1000 mg/kg in diet for 78 wk",inactive; negative
same,carcinogen call,"Species: Mouse, Strain/Sex: CD-1/Male (60/Group), Route: Oral, Dose: 0, 250, 500, 1000 mg/kg in diet for 78 wk, Dose: 0, 250, 500, 1000 mg/kg in diet for 78 wk",inactive; negative
same,carcinogen call,"Species: RAT, Strain/Sex: CD-1/FEMALE, Route: ORAL, Dose: 0, 250, 500, 1000 MG/KG/D IN DIET FOR 78 WK (STUDY DURATION: 78 WK), Dose: 0, 250, 500, 1000 MG/KG/D IN DIET FOR 78 WK (STUDY DURATION: 78 WK)",inactive; negative
same,carcinogen call,"Species: RAT, Strain/Sex: CD/FEMALE, Route: ORAL, Dose: 0, 30, 100, 400 MG/KG/D IN DIET FOR 104 WK (STUDY DURATION: 104 WK), Dose: 0, 30, 100, 400 MG/KG/D IN DIET FOR 104 WK (STUDY DURATION: 104 WK)",inactive; negative
same,carcinogen call,"Species: RAT, Strain/Sex: CD/MALE, Route: ORAL, Dose: 0, 10, 30, 100 MG/KG/D IN DIET FOR 104 WK (STUDY DURATION: 104 WK), Dose: 0, 10, 30, 100 MG/KG/D IN DIET FOR 104 WK (STUDY DURATION: 104 WK)",inactive; negative
same,carcinogen call,"Species: Rat, Strain/Sex: Charles River CD/Female (60/Group), Route: Oral, Dose: 0, 10, 30, 100 mg/kg in diet for 2 yr, Dose: 0, 10, 30, 100 mg/kg in diet for 2 yr",inactive; negative
same,carcinogen call,"Species: Rat, Strain/Sex: Charles River CD/Male (60/Group), Route: Oral, Dose: 0, 10, 30, 100 mg/kg in diet for 2 yr, Dose: 0, 10, 30, 100 mg/kg in diet for 2 yr",inactive; negative
CN1CCN(N=O)CC1,carcinogen call,"Species: RAT, Strain/Sex: SPRAGUE-DAWLEY/FEMALE, Route: INHALATION, Dose: 0, 2.4 PPM 14.5 HR/D FOR 74 D OVER 7.5 MONTHS (STUDY DURATION: 350 D), Tumor Site: Type of Lesion: NASAL CAVITY: TUMOR",active; positive
Cn1cnc([N+](=O)[O-])c1Sc1ncnc2nc[nH]c12,carcinogen call,"Species: MOUSE, Strain/Sex: B6C3F1/FEMALE, Route: ORAL, Dose: 0, 5, 20 PPM IN DIET FOR 100 WK (STUDY DURATION: 100 WK), Dose: 0, 5, 20 PPM IN DIET FOR 100 WK (STUDY DURATION: 100 WK), Tumor Site: Type of Lesion: HEMATOPOIETIC SYSTEM: LYMPHOMA, UTERUS: HEMANGIODOTHELIOMA",active; positive
same,carcinogen call,"Species: MOUSE, Strain/Sex: B6C3F1/MALE, Route: ORAL, Dose: 0, 5, 20 PPM IN DIET FOR 100 WK (STUDY DURATION: 100 WK), Dose: 0, 5, 20 PPM IN DIET FOR 100 WK (STUDY DURATION: 100 WK)",inactive; negative
same,carcinogen call,"Species: MOUSE, Strain/Sex: SWISS/MALE,FEMALE, Route: INTRAPERITONEAL, Dose: 40 MG/KG IN NAOH-SALINE 1/D ON D 1-4 AFTER BIRTH, Tumor Site: Type of Lesion: HEMATOPOIETIC SYSTEM (LEUKEMIA)",active; positive
same,carcinogen call,"Species: RAT, Strain/Sex: F344/MALE,FEMALE, Route: ORAL, Dose: 150 MG/KG IN DIET FOR 52 WK, Tumor Site: Type of Lesion: EAR: SQUAMOUS CELL CARCINOMA",active; positive
same,carcinogen call,"Species: RAT, Strain/Sex: SPRAGUE-DAWLEY/FEMALE, Route: ORAL, Dose: 1.5, 2.2 G/RAT IN DIET (ESTIMATED TOTAL), Tumor Site: Type of Lesion: THYMUS GLAND: LYMPHOMA, EAR (DUCT): SQUAMOUS CELL CARCINOMA",active; positive
N[C@@H](CS)C(=O)O,carcinogen call,"Species: RAT, Strain/Sex: F344/FEMALE, Route: ORAL, Dose: 0, 0.25, 0.5% IN DRINKING WATER FOR 108 WK (STUDY DURATION: 108 WK), Dose: 0, 0.25, 0.5% IN DRINKING WATER FOR 108 WK (STUDY DURATION: 108 WK)",inactive; negative
same,carcinogen call,"Species: RAT, Strain/Sex: F344/MALE, Route: ORAL, Dose: 0, 0.25, 0.5% IN DRINKING WATER FOR 108 WK (STUDY DURATION: 108 WK), Dose: 0, 0.25, 0.5% IN DRINKING WATER FOR 108 WK (STUDY DURATION: 108 WK)",inactive; negative
OCC(CO)NC1CC(O)(CO)C(O)C(O)C1O (stereo unspecified),carcinogen call,"Species: MOUSE, Strain/Sex: CD-1/FEMALE, Route: GAVAGE, Dose: 0, 15, 50, 150 MG/KG/D IN DISTILLED WATER (STUDY DURATION: 105 WK), Dose: 0, 15, 50, 150 MG/KG/D IN DISTILLED WATER (STUDY DURATION: 105 WK)",inactive; negative
same,carcinogen call,"Species: MOUSE, Strain/Sex: CD-1/MALE, Route: GAVAGE, Dose: 0, 15, 50, 150 MG/KG/D IN DISTILLED WATER (STUDY DURATION: 105 WK), Dose: 0, 15, 50, 150 MG/KG/D IN DISTILLED WATER (STUDY DURATION: 105 WK)",inactive; negative
same,carcinogen call,"Species: RAT, Strain/Sex: F344/FEMALE, Route: GAVAGE, Dose: 0, 3, 10, 30 MG/KG/D IN DISTILLED WATER FOR 24 MO (STUDY DURATION: 110 WK), Dose: 0, 3, 10, 30 MG/KG/D IN DISTILLED WATER FOR 24 MO (STUDY DURATION: 110 WK)",inactive; negative
same,carcinogen call,"Species: RAT, Strain/Sex: F344/MALE, Route: GAVAGE, Dose: 0, 3, 10, 30 MG/KG/D IN DISTILLED WATER FOR 24 MO (STUDY DURATION: 110 WK), Dose: 0, 3, 10, 30 MG/KG/D IN DISTILLED WATER FOR 24 MO (STUDY DURATION: 110 WK)",inactive; negative
O=[N+]([O-])c1ccc2ccc3c([N+](=O)[O-])c4ccccc4c4ccc1c2c34,carcinogen call,"Species: RAT, Strain/Sex: F344/MALE, Route: SUBCUTANEOUS IMPLANT, Dose: 0, 8, 40, 200, 1000 UG IN 50 µL BEESWAX/TRICAPRYLIN IMPLANTED FOR UP TO 45 WK (STUDY DURATION: 45 WK), Dose: 0, 8, 40, 200, 1000 UG IN 50 µL BEESWAX/TRICAPRYLIN IMPLANTED FOR UP TO 45 WK (STUDY DURATION: 45 WK)",inactive; negative
same,carcinogen call,"Species: RAT, Strain/Sex: F344/MALE, Route: SUBCUTANEOUS, Dose: 0, 8, 40, 200, 1000 UG SUSPENDED IN BEESWAX/TRICAPRYLIN (1:1) ONCE, Dose: 0, 8, 40, 200, 1000 UG SUSPENDED IN BEESWAX/TRICAPRYLIN (1:1) ONCE",inactive; negative
Nc1ccc(Cc2ccc(N)c(Cl)c2)cc1Cl,carcinogen call,"Species: MOUSE, Route: ORAL, Tumor Site: Type of Lesion: BLOOD VESSELS, LIVER",active; positive
same,carcinogen call,"Species: RAT, Route: ORAL, Tumor Site: Type of Lesion: LIVER, LUNG",active; positive
same,carcinogen call,"Species: RAT, Route: SUBCUTANEOUS, Tumor Site: Type of Lesion: LIVER, LUNG",active; positive
same,carcinogen call,"Species: RAT, Strain/Sex: STRAIN-CD/FEMALE, Route: ORAL, Dose: 0, 1000 PPM IN PROTEIN-ADEQUATE (23%) DIET FOR 2 YR (STUDY DURATION: 2 YR), Tumor Site: Type of Lesion: LUNG: ADENOCARCINOMA",active; positive
same,carcinogen call,"Species: RAT, Strain/Sex: STRAIN-CD/FEMALE, Route: ORAL, Dose: 0, 1000 PPM IN PROTEIN-DEFICIENT (7%) DIET FOR 16 MO (STUDY DURATION: 16 MO), Tumor Site: Type of Lesion: LUNG: ADENOCARCINOMA, MAMMARY GLAND: ADENOCARCINOMA",active; positive
same,carcinogen call,"Species: RAT, Strain/Sex: STRAIN-CD/MALE, Route: ORAL, Dose: 0, 1000 PPM IN PROTEIN-ADEQUATE (23%) DIET FOR 2 YR (STUDY DURATION: 2 YR), Tumor Site: Type of Lesion: LUNG: ADENOCARCINOMA",active; positive
same,carcinogen call,"Species: RAT, Strain/Sex: STRAIN-CD/MALE, Route: ORAL, Dose: 0, 1000 PPM IN PROTEIN-DEFICIENT (7%) DIET FOR 16 MO (STUDY DURATION: 16 MO), Tumor Site: Type of Lesion: LUNG: ADENOCARCINOMA, LIVER: HEPATOCELLULAR ADENOMA, HEPATOCELLULAR CARCINOMA",active; positive

# Source: PubChem BioAssay AID1259411 (Chemical Carcinogenesis Research Information System (CCRIS), 2018)
